The results in this text go back to patent US8129371B2, “Thienopyrimidine and pyrazolopyrimidine compounds and their use as mTOR kinase and PI3 kinase inhibitors” (Wyeth LLC, priority 2007, dated 2012).

Where two headings read alike, the source gives them in different places. Some results are limits rather than exact numbers.

Assay [1] addresses T1, PI3K (Homo sapiens, UniProt P48736).
T1 construct: PI3 Kinase γ IC50; other: PI3 Kinase γ; other: PI3 Kinase γ isoform, fluorescence polarization
As to the kind of experiment: Fluorescence polarization assay for PI3K. The assay is classed as biochemical. The conditions noted are these: read-out: PI3 Kinase γ IC50. The procedure, abridged: (§1)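 Fluorescence-polarization competition readout: after 30–60 min of PIP2/ATP turnover in 1% DMSO, a stop mix with GST-GRP (70 nM) and red probe (10 nM) was added.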

Assay [2] addresses T2, PI3K (Homo sapiens, UniProt P42336).
T2 construct: PI3 Kinase α IC50; other: PI3 Kinase α; other: PI3 Kinase α isoform, fluorescence polarization
Description: Fluorescence polarization assay for PI3K. Particulars: read-out: PI3 Kinase α IC50. The assay is classed as biochemical. A digest of the protocol:
as §1

The next assay concerns prostate line LNCap. Description: In vitro cell culture growth assay (MTS), LNCap. The assay is classed as cell-based. The conditions noted are these: Homo sapiens, LNCaP, 72 h, LNCap cells, three days after drug treatment. The procedure: Human tumor cell lines used include prostate lines LNCap and PC3MM2, breast lines MDA468, MCF7, renal line HTB44 (A498), colon line HCT116, and ovarian line OVCAR3. Cells were plated in 96-well culture plates. One day following plating, the inhibitors were added to cells. Three days after drug treatment, viable cell densities were determined by metabolic conversion (by viable cells) of the dye MTS, a well-established cell proliferation assay. The assays were performed using an assay kit purchased from Promega Corp. (Madison, Wis.) following the protocol supplied with the kit. The MTS assay results were read in a 96-well plate reader by measuring absorbance at 490 nm. The effect of each treatment was calculated as percent of control growth relative to the vehicle-treated cells grown in the same culture plate.

The target of the next assay is T3, Human mTOR (FLAG-TOR) (Homo sapiens, UniProt P42345).
T3 construct: FLAG
As to the kind of experiment: Human mTOR kinase assay with purified enzyme, DELFIA format. The assay is classed as biochemical. The procedure, abridged: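 DELFIA readout: Eu-anti-P(T389)-S6K antibody (40 ng/mL, 1 h) on captured His6-S6K from the stopped reaction. Kinase step used purified FLAG-tagged human mTOR with test compound in HEPES (pH 7.4)/MnCl2/DTT buffer, 2 h at room temperature (linear 1–6 h), terminated by EDTA/EGTA.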

The subject of the next assay is breast line MDA468. As to the kind of experiment: In vitro cell culture growth assay (MTS), MDA468. The assay is classed as cell-based. Particulars: Homo sapiens, 72 h, MDA468 cells, three days after drug treatment. The procedure, abridged: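 Growth is reported as percent of vehicle-treated control grown in the same plate, with viability determined by metabolic conversion of MTS dye and absorbance read at 490 nm. Compounds were applied one day after plating and left for three days.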

Where [3] appears, read: PI3 Kinase γ isoform, fluorescence polarization.
[4] abbreviates: PI3 Kinase α isoform, fluorescence polarization.
[5] abbreviates: purified human mTOR enzyme, DELFIA format.

T1 sequence (P48736 whole entry, canonical isoform): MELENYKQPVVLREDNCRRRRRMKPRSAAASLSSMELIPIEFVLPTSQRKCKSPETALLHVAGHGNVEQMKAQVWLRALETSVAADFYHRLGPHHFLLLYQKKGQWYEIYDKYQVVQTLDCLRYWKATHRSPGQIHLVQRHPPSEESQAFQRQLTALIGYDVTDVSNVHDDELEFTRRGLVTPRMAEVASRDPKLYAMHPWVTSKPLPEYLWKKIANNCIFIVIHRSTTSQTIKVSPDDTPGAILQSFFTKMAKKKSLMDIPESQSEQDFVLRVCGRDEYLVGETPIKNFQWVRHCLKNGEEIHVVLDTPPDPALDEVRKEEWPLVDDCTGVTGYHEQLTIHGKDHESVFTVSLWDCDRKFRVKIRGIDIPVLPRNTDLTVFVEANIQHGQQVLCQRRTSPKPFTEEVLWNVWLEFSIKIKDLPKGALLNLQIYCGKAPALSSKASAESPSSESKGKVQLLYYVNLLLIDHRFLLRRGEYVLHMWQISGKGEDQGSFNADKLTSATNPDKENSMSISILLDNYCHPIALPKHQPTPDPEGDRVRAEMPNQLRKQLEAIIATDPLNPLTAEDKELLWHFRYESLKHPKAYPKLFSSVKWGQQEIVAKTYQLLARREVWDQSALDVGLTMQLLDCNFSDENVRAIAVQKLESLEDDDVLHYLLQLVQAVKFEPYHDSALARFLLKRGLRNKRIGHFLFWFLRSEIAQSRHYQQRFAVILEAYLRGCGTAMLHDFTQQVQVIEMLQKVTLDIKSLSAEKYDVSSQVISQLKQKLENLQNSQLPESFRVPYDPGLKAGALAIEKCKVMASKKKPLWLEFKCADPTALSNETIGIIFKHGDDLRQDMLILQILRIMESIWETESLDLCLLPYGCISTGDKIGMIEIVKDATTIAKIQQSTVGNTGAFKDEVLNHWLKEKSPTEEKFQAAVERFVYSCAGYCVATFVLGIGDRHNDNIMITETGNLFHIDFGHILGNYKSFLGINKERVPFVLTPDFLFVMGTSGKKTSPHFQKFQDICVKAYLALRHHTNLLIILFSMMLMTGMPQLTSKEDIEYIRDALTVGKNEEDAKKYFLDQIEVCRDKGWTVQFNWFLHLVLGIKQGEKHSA
T2 sequence (P42336 whole entry, canonical isoform): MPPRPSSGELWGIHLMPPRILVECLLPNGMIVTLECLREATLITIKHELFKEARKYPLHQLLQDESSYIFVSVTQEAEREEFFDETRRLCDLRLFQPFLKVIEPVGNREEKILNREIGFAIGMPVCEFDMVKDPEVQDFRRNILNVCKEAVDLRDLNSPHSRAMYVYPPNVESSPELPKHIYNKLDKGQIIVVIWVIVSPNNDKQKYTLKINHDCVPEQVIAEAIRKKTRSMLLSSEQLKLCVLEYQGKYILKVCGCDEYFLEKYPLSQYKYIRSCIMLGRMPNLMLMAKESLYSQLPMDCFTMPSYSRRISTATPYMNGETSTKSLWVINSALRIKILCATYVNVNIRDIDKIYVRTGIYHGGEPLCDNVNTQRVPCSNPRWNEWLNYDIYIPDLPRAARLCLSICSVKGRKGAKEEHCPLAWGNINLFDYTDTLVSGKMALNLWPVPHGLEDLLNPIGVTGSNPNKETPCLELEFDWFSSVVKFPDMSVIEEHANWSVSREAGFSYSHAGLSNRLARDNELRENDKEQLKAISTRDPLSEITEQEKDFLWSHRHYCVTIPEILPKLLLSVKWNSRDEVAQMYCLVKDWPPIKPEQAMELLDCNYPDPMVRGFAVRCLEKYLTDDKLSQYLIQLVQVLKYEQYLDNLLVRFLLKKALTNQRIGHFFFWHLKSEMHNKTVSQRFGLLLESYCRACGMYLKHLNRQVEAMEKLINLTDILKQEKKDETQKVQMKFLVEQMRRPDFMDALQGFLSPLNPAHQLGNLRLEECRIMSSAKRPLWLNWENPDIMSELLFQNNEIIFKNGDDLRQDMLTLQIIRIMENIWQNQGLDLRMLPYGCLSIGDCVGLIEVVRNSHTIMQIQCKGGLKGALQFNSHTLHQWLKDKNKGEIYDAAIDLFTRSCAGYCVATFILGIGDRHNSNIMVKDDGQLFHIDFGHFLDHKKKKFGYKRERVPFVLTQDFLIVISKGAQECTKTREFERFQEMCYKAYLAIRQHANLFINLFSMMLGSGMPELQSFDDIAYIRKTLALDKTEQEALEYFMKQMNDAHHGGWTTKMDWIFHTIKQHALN

For `O=C(NCCF)Nc1ccc(-c2nc(N3CC4CCC(C3)O4)c3sccc3n2)cc1` [Example 408, 1-(2-fluoroethyl)-3-{4-[4-(8-oxa-3-azabicyclo[3.2.1]oct-3-yl)thieno[3,2-d]pyrimidin-2-yl]phenyl}urea], the IC50 on PI3K [1] (setting [3]) is above 10000 nM; at PI3K [2] (setting [4]), 825 nM; with prostate line LNCap, 87 nM; at Human mTOR (FLAG-TOR) (setting [5]) it was 0.61 nM; in the assay with breast line MDA468, 530 nM.

As to `CN1CCN(c2ccc(NC(=O)Nc3ccc(-c4nc(N5CC6CCC(C5)O6)c5cnn(CC(F)(F)F)c5n4)cc3)cn2)CC1` [Example 262, 1-[6-(4-methylpiperazin-1-yl)pyridin-3-yl]-3-{4-[4-(8-oxa-3-azabicyclo[3.2.1]oct-3-yl)-1-(2,2,2-trifluoroethyl)-1H-pyrazolo[3,4-d]pyrimidin-6-yl]phenyl}urea], the IC50 at PI3K [1] (PI3 Kinase γ) came to 1360 nM; on PI3K [2] (PI3 Kinase α), 191 nM; with prostate line LNCap, 1 nM; against Human mTOR (FLAG-TOR) it was 0.515 nM; with breast line MDA468, 5 nM.

With `COC(=O)N1CCC(n2ncc3c(N4C5CCC4COC5)nc(-c4ccc(NC(=O)Nc5ccc(N6CCNCC6)cc5)cc4)nc32)CC1` [Example 364, methyl 4-[4-(3-oxa-8-azabicyclo[3.2.1]oct-8-yl)-6-(4-{[(4-piperazin-1-ylphenyl)carbamoyl]amino}phenyl)-1H-pyrazolo[3,4-d]pyrimidin-1-yl]piperidine-1-carboxylate], the IC50 on PI3K [1] (setting [3]) amounted to 947 nM; on PI3K [2] (setting [4]), 1230 nM; in the assay on prostate line LNCap, 1 nM; on Human mTOR (FLAG-TOR) (setting [5]) it was 0.44 nM; in the assay with breast line MDA468, 4 nM.

Regarding `COC(=O)N1CCC(n2ncc3c(N4CC5CCC(C4)O5)nc(-c4ccc(NC(=O)Nc5ccncc5)cc4)nc32)CC1` [Example 14, methyl 4-[4-(8-oxa-3-azabicyclo[3.2.1]oct-3-yl)-6-{4-[(pyridin-4-ylcarbamoyl)amino]phenyl}-1H-pyrazolo[3,4-d]pyrimidin-1-yl]piperidine-1-carboxylate], the IC50 on PI3K [1] (PI3 Kinase γ) is 2050 nM; on PI3K [2] (PI3 Kinase α), 487 nM; in the assay with prostate line LNCap, 0.9 nM; on Human mTOR (FLAG-TOR) it was 0.16 nM; with breast line MDA468, 19 nM.

Consider `N#CCCn1ncc2c(N3CC4CCC(C3)O4)nc(-c3ccc(NC(=O)NC4CC4)cc3)nc21` [Example 215, 1-{4-[1-(2-cyanoethyl)-4-(8-oxa-3-azabicyclo[3.2.1]oct-3-yl)-1H-pyrazolo[3,4-d]pyrimidin-6-yl]phenyl}-3-cyclopropylurea], for which the IC50 at PI3K [1] (PI3 Kinase γ) is above 10000 nM; on PI3K [2] (PI3 Kinase α) it was 3600 nM; in the assay with prostate line LNCap it was 78 nM; against Human mTOR (FLAG-TOR), 1.35 nM; in the assay on breast line MDA468 it was 800 nM.

With `CNC(=O)Nc1ccc(-c2nc(N3CC4CCC(C3)O4)c3cnn(C(COC)COC)c3n2)cc1` [Example 319, 1-(4-{1-[2-methoxy-1-(methoxymethyl)ethyl]-4-(8-oxa-3-azabicyclo[3.2.1]oct-3-yl)-1H-pyrazolo[3,4-d]pyrimidin-6-yl}phenyl)-3-methylurea], the IC50 on PI3K [1] (setting [3]) is above 10000 nM; on PI3K [2] (setting [4]) it was 628 nM; in the assay with prostate line LNCap it was 240 nM; at Human mTOR (FLAG-TOR) (setting [5]) it was 13.5 nM; in the assay on breast line MDA468, 900 nM.

As to `CCn1nc(N2CCCC2)c2c(N3CC4CCC(C3)O4)nc(-c3ccc(NC(=O)NC)cc3)nc21` [Example 347, 1-{4-[1-ethyl-4-(8-oxa-3-azabicyclo[3.2.1]oct-3-yl)-3-pyrrolidin-1-yl-1H-pyrazolo[3,4-d]pyrimidin-6-yl]phenyl}-3-methylurea], the IC50 was found to be 7130 nM on PI3K [1] (setting [3]); 1100 nM at PI3K [2] (setting [4]); 310 nM in the assay on prostate line LNCap; 5.6 nM against Human mTOR (FLAG-TOR) (setting [5]); 1300 nM with breast line MDA468.

Take `CCn1ncc2c(N3CC4CCC(C3)O4)nc(-c3ccc(NC(=O)Nc4ccc(Cl)cc4)cc3)nc21` [Example 188, 1-(4-chlorophenyl)-3-{4-[1-ethyl-4-(8-oxa-3-azabicyclo[3.2.1]oct-3-yl)-1H-pyrazolo[3,4-d]pyrimidin-6-yl]phenyl}urea]: the IC50 on PI3K [1] (PI3 Kinase γ) worked out at 2980 nM; at PI3K [2] (PI3 Kinase α), 464 nM; in the assay with prostate line LNCap, 10 nM; against Human mTOR (FLAG-TOR), 1.1 nM; in the assay on breast line MDA468, 190 nM.

`CCn1ncc2c(N3CC4CCC(C3)O4)nc(-c3ccc(NC(=O)NCCC(=O)N4CCN(C)CC4)cc3)nc21` [Example 277, 1-{4-[1-ethyl-4-(8-oxa-3-azabicyclo[3.2.1]oct-3-yl)-1H-pyrazolo[3,4-d]pyrimidin-6-yl]phenyl}-3-[3-(4-methylpiperazin-1-yl)-3-oxopropyl]urea]: the IC50 on PI3K [1] (PI3 Kinase γ) is above 10000 nM; at PI3K [2] (PI3 Kinase α), 2950 nM; with prostate line LNCap, 3500 nM; at Human mTOR (FLAG-TOR) it was 110 nM; in the assay on breast line MDA468, 8000 nM.

Take `Cn1ncc2c(N3CC4CCC(C3)O4)nc(-c3ccc(NC(=O)Nc4ccc(S(C)(=O)=O)cc4)cc3)nc21` [Example 239, 1-{4-[1-methyl-4-(8-oxa-3-azabicyclo[3.2.1]oct-3-yl)-1H-pyrazolo[3,4-d]pyrimidin-6-yl]phenyl}-3-[4-(methylsulfonyl)phenyl]urea]: the IC50 was determined as 440 nM at PI3K [1] (PI3 Kinase γ); 64 nM at PI3K [2] (PI3 Kinase α); 1 nM in the assay with prostate line LNCap; 0.108 nM at Human mTOR (FLAG-TOR); 4 nM with breast line MDA468.

With `CN1CCN(Cc2cc3nc(-c4ccc(NC(=O)Nc5ccc(C(N)=O)cc5)cc4)nc(N4CC5CCC(C4)O5)c3s2)CC1` [Example 428, 4-{[(4-{6-[(4-methylpiperazin-1-yl)methyl]-4-(8-oxa-3-azabicyclo[3.2.1]oct-3-yl)thieno[3,2-d]pyrimidin-2-yl}phenyl)carbamoyl]amino}benzamide], the IC50 is 815 nM at PI3K [1] (setting [3]); 34 nM at PI3K [2] (setting [4]); 240 nM with prostate line LNCap; 1.5 nM against Human mTOR (FLAG-TOR) (setting [5]); 110 nM in the assay with breast line MDA468.

Regarding `N#CCCn1ncc2c(N3CC4CCC(C3)O4)nc(-c3ccc(NC(=O)Nc4ccc(N5CCOCC5)cc4)cc3)nc21` [Example 221, 1-{4-[1-(2-cyanoethyl)-4-(8-oxa-3-azabicyclo[3.2.1]oct-3-yl)-1H-pyrazolo[3,4-d]pyrimidin-6-yl]phenyl}-3-(4-morpholin-4-ylphenyl)urea], the IC50 was 4790 nM on PI3K [1] (PI3 Kinase γ); 444 nM at PI3K [2] (PI3 Kinase α); below 1 nM in the assay on prostate line LNCap; 0.235 nM at Human mTOR (FLAG-TOR); 3 nM with breast line MDA468.

In the case of `CNC(=O)Nc1ccc(-c2nc(N3CC4CCC(C3)O4)c3cnn(C4CCC(=O)CC4)c3n2)cc1` [Example 106, 1-(4-(4-(8-oxa-3-azabicyclo[3.2.1]octan-3-yl)-1-(4-oxocyclohexyl)-1H-pyrazolo[3,4-d]pyrimidin-6-yl)phenyl)-3-methylurea], the IC50 at PI3K [1] (PI3 Kinase γ) was above 10000 nM; at PI3K [2] (PI3 Kinase α), 1300 nM; in the assay with prostate line LNCap, 32 nM; at Human mTOR (FLAG-TOR), 0.22 nM; in the assay with breast line MDA468, 110 nM.

As for `CN1CCN(C2CCC(n3ncc4c(N5CC6CCC(C5)O6)nc(-c5ccc(NC(=O)OCCO)cc5)nc43)CC2)CC1` (stereo not shown) [Example 369, 2-hydroxyethyl (4-{1-[4-(4-methylpiperazin-1-yl)cyclohexyl]-4-(8-oxa-3-azabicyclo[3.2.1]oct-3-yl)-1H-pyrazolo[3,4-d]pyrimidin-6-yl}phenyl)carbamate], the IC50 at PI3K [1] (setting [3]) came out at 11900 nM; on PI3K [2] (setting [4]), 3140 nM; in the assay on prostate line LNCap, 220 nM; on Human mTOR (FLAG-TOR) (setting [5]) it was 1.6 nM; with breast line MDA468 it was 750 nM.

With `Nc1ccc(-c2nc(N3CC4CCC(C3)O4)c3sccc3n2)cn1` [Example 420, 5-[4-(8-oxa-3-azabicyclo[3.2.1]oct-3-yl)thieno[3,2-d]pyrimidin-2-yl]pyridin-2-amine], the IC50 was above 10000 nM at PI3K [1] (setting [3]); 1770 nM on PI3K [2] (setting [4]); 1250 nM with prostate line LNCap; 32 nM on Human mTOR (FLAG-TOR) (setting [5]); 4800 nM in the assay with breast line MDA468.

With `O=C(Nc1ccccc1)Nc1ccc(-c2nc(N3CC4CCC(C3)O4)c3cnn(C4CCNCC4)c3n2)cc1` [Example 29, 1-{4-[4-(8-oxa-3-azabicyclo[3.2.1]oct-3-yl)-1-piperidin-4-yl-1H-pyrazolo[3,4-d]pyrimidin-6-yl]phenyl}-3-phenylurea], the IC50 worked out at 2310 nM at PI3K [1] (PI3 Kinase γ); 273 nM on PI3K [2] (PI3 Kinase α); 100 nM with prostate line LNCap; 2.3 nM against Human mTOR (FLAG-TOR); 280 nM in the assay on breast line MDA468.

Consider `Cn1ncc2c(N3CC4CCC(C3)O4)nc(-c3ccc(NC(=O)NC4CC4)cc3)nc21` [Example 53, 1-cyclopropyl-3-{4-[1-methyl-4-(8-oxa-3-azabicyclo[3.2.1]oct-3-yl)-1H-pyrazolo[3,4-d]pyrimidin-6-yl]phenyl}urea], for which the IC50 came to 8820 nM at PI3K [1] (PI3 Kinase γ); 845 nM at PI3K [2] (PI3 Kinase α); 72 nM with prostate line LNCap; 1.4 nM against Human mTOR (FLAG-TOR); 800 nM in the assay with breast line MDA468.
